How the values were obtained:
[1] = test system: attachment of cells to a fibronectin-coated substrate; assay: Inhibition of cell attachment to fibronectin-coated substrate by solubilized peptide; assay type: cell-based; conditions: peptide in solubilized form combined with free cells
Description: Those peptides having a COOH-terminal cystine residue were assayed for their activity in promoting cell attachment by first attaching them via the heterobifunctional crosslinker SPDP (N-succinimidyl 3-(2-pyridyldithio) propionate, Sigma, St. Louis, Mo.) to rabbit IgG which was immobilized on plastic. The attachment assay was then carried out as described by Ruoslahti, E. et al., Methods Enzymology 82:803-831 (1981) using freshly trypsinized normal rat kidney cells (NRK). After a one hour incubation, those cells which had attached were fixed, stained and quantitated using either an Artek cell counter or a multiscan spectrophotometer. […] The relative activity of each peptide is indicated by the concentration of the peptides in nmoles/ml necessary to achieve half-maximal activity, or, where accurate quantitation was not possible, by the crosses at the right of FIG. 1, and by the graph in FIG. 2.
If the mechanism of cell attachment involves the recognition of the amino acid sequence of the tetrapeptide by a receptor on the cell, then it could be postulated that attachment could be inhibited by preventing this recognition by “blocking” the receptor. […] In separate experiments, various concentrations of the tetrapeptide (Arg-Gly-Asp-Ser) and a hexapeptide, Pro-Arg-Gly-Asp-Ser-Gly in a solubilized form were combined with the free cells, and attachment activity measured as above.

[2] = test system: normal rat kidney cells (NRK); assay: Cell attachment promoting activity assay (peptide coupled via SPDP to rabbit IgG immobilized on plastic); assay type: cell-based; conditions: freshly trypsinized NRK cells, one hour incubation
Description: Those peptides having a COOH-terminal cystine residue were assayed for their activity in promoting cell attachment by first attaching them via the heterobifunctional crosslinker SPDP (N-succinimidyl 3-(2-pyridyldithio) propionate, Sigma, St. Louis, Mo.) to rabbit IgG which was immobilized on plastic. The attachment assay was then carried out as described by Ruoslahti, E. et al., Methods Enzymology 82:803-831 (1981) using freshly trypsinized normal rat kidney cells (NRK). After a one hour incubation, those cells which had attached were fixed, stained and quantitated using either an Artek cell counter or a multiscan spectrophotometer. In all cases, maximum attachment was about 80-90% of the cells plated. The relative activity of each peptide is indicated by the concentration of the peptides in nmoles/ml necessary to achieve half-maximal activity, or, where accurate quantitation was not possible, by the crosses at the right of FIG. 1, and by the graph in FIG. 2.

Substance	inhibition of normal attachment of cells to a fibronectin-coated substrate [1]	cell attachment promoting activity [2]
H-Arg-Gly-Asp-Ser-OH (RGDS; printed: Arg-Gly-Asp-Ser)	inhibit the normal attachment of cells	had the property of causing cell attachment
PRGDSG [Pro-Arg-Gly-Asp-Ser-Gly]	inhibit the normal attachment of cells	–
RVDSPAC [peptide with substitution of the glycine with the bulky valine residue]	–	abolished the activity

From patent US20030143733A1, “Tetrapeptide” (La Jolla Cancer Research Foundation, priority 1985, published 2003)
